Laboratory results: patent publication US10301348B2, “Compounds for use in prevention and treatment of neurodegenerative diseases and pain” (Academia Sinica, priority 2013, dated 2019)
“Also recorded” adds a separate entry of the source.

Columns and labels:
PC12 cells = assay: Serum deprivation-induced cell death, MTT assay; format: cell-based, Rat; details: serum-deprived PC12 cells, 24 h
Procedure: Serum-deprived PC12 cells were treated with or without the indicated reagent(s) for 24 h. Cell viability was expressed as a percentage of the results from MTT assays compared to the mean of a serum-containing control group. Data points represent the mean±SEM (n=3˜6).
Rat PC12 cells purchased from American Type Culture Collection (ATCC; Manassas, Va., USA) were maintained in DMEM supplemented with 10% horse serum and 5% FBS and incubated in a CO2 incubator (5%) at 37° C. LIPOFECTAMINE™ 2000 (Invitrogen) was used as a vehicle to transfer plasmids into cells according to the manufacture's protocol. Plasmids were kindly provided by Dr. Pulst (Department of Neurology, University of Utah, USA). Normally, 5 μg of DNA combined with 5 μl of LIPOFECTAMINE™ 2000 was applied to each well of 6-well plates. The plating number was (1˜1.5)×10^6 cells/well. After transfections for 6 h, cells were treated with reagents for another 24 h. Images were taken with a Zeiss Axiovert 200M inverted fluorescence microscope (Göttingen, Germany).
MTT assay. Survival was assessed by 3-(4,5-dimethylthiazol-2-yl)-2,5-diphenyl tetrazolium bromide (MTT) metabolism assay. […] After discarding the medium, DMSO was applied to the well to dissolve formazan crystals, and the absorbances at 570 and 630 nm in each well were measured on a micro-enzyme-linked immunosorbent assay (ELISA) reader.

human A2AR = human A2AR (Homo sapiens, UniProt P29274); assay: A2AR radioligand binding assay (3H-CGS21680)
Procedure: (§1) Binding of the indicated compounds to A2A adenosine receptor (A2AR) and an adenosine transporter (ENT1) was characterized using standard binding protocols.
(§2) Radioligand binding assays. Radioligand binding assays were performed by MDS Pharma Services Taiwan (Taipei, Taiwan) using standard binding protocols. For A2AR binding assays, membrane proteins collected from HEK293 cells overexpressing human A2AR were incubated in the reaction buffer [50 mM Tris-HCl (pH 7.4), 10 mM MgCl2, 1 mM EDTA, and 2 U/mL adenosine deaminase] containing ^3H-CGS21680 (50 nM) for 90 min at 25° C. Nonspecific binding was assessed in the presence of 50 μM adenosine-5′-N-ethylcarboxamide. […] Binding assays for adenosine transporters were conducted as described earlier. Membrane fractions collected from the cerebral cortex of Duncan Hartley-derived guinea pigs were incubated with ^3H-labeled 6-[(4-nitrobenzyl)thio]-9-β-D-ribofuranosylpurine (NBTI, 0.5 nM) for 30 min at 25° C. in the incubation buffer containing 50 mM Tris-HCl (pH 7.4). […] Reactions were terminated by filtration over GF/B glass fibers and washing with the reaction buffer.

[1] = target: T1, adenosine transporter (ENT1) (Cavia porcellus, UniProt H0V4R7); assay: Adenosine transporter (ENT1) radioligand binding assay (3H-NBTI)
T1 sequence (H0V4R7 1-461): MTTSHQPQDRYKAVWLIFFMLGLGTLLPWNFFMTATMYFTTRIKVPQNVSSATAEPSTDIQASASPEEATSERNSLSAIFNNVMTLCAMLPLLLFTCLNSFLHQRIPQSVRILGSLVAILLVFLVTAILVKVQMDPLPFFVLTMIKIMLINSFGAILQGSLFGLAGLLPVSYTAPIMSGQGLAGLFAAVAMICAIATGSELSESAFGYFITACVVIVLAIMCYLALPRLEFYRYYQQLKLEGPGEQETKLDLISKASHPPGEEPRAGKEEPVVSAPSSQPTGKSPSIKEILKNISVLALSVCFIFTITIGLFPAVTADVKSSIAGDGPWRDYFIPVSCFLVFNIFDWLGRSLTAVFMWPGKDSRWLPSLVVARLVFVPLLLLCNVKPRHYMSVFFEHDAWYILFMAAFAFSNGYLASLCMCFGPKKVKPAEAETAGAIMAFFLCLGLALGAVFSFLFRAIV
Procedure: as §1, §2

[2] = Oral bioavailability / pharmacokinetic study in ICR mice; format: in vivo
Procedure: To measure oral bioavailability of a test compound, blood samples were collected from male ICR mice (6 weeks old; 20-25 g) after oral (10 mg/kg) or intravenous (1 mg/kg) administrations of the test compound. The blood samples collected at the indicated periods were extracted with methanol containing 0.1% formic acid, and then 10 μL of each extracted sample were injected to UPLC-MSMS for quantitation.
Pharmacokinetic Study. The compound was administered as aqueous solutions in normal saline. Male ICR mice were purchased from BioLASCO Taiwan Co., Ltd. To measure oral bioavailability of test compounds (T1-11 and JMF3464), blood samples were collected from male ICR mice (6 weeks old; […]) after oral (10 mg/kg) or intravenous (1 mg/kg) administrations of test compounds. For T1-11, blood samples were collected at 2, 10, 30, 60, 120, 360 minutes after intravenous administration and at 15, 30, 45, 60, 120, 360 minutes after oral administration. For JMF3464, the blood samples were collected at 2, 10, 30, 60, 120, 240, 360, 480 minutes after intravenous administration and at 15, 30, 60, 90, 120, 240, 360, 480 minutes after oral administration. The blood samples were extracted by methanol with 0.1% formic acid, and then 10 μL of the extracted samples were injected to UPLC-MSMS to for quantitation.
The pharmacokinetic parameters were obtained using a pharmacokinetic program WinNonlin, fitting data to a noncompartmental model. […] The total plasma clearance (CL) was calculated as dose/AUCi.v.. The oral bioavailability (F) of the test compound by oral administration was calculated from the AUC0-∞ of the oral dose divided by the AUC0-∞ of the i.v. dose.

NSC34 cells = assay: TDP-43 mislocalization caused by AICAR (AMPK activation), immunostaining; format: cell-based; details: 30 μM, 1 h pretreatment then AICAR 1 mM for 24 hrs
Procedure: Cells were pretreated with JMF3464 (30 μM) for one hour, and then treated with AICAR (1 mM, Al) in the presence of JMF3464 for additional 24 hrs. TDP-43 (red) localization was analysed by immunostaining. The locations of nuclei were marked by Hochest (blue).
Cell culture and transfection. The motor neuron cell line (NSC34) was a generous gift from Dr. Neil Cashman (Brain Research Centre, The University of British Columbia, Canada), and cultured in a high-glucose Dulbecco's modified Eagle's medium (DMEM) containing 10% fetal calf serum (FCS), 2 mM L-glutamine, and 1% penicillin/streptomycin (Invitrogen GibcoBRL, Carlsbad, Calif., USA) at 37° C. under 5% CO2.

[3] = test system: SCA3 transgenic mice expressing ataxin-3-Q79; assay: SCA3 transgenic mice: rotarod test and NeuN staining of pontine nuclei; details: 4-month-old SCA3 transgenic mice
Procedure: (A) SCA3 transgenic mice were given drinking water containing vehicle (0.2% DMSO) or T1-11 (0.1 mg/ml) beginning at 4 weeks-old.
Behavioral test. Balance and coordination functions of mice were determined by performing rotarod test. Mice were placed on the moving drum of a rotarod apparatus (Accelerating Model, Ugo Basile Biological Research Apparatus), which was then accelerated until mouse fell from the drum onto a plate to stop the timer. Latency to fall was measured in four daily trials over the course of 4 days.
Immunohistochemical staining. Wild-type or SCA3 transgenic mice were anesthetized and perfused transcardially with 4% paraformaldehyde in PBS. Brain was equilibrated in Tissue-Tek embedding medium and frozen in liquid nitrogen. Coronal sections (20 μm) prepared by cryostat sectioning were permeabilized in 0.1% Triton X-100, and incubated at 4° C. for 48 hours with diluted anti-NeuN monoclonal antiserum (Chemicon). Subsequently, sections were washed and incubated with biotinylated horse anti-mouse IgG followed by incubation with avidin-biotin-horseradish peroxidase complex. The sections were then washed and developed in a diaminobenzidine solution. NeuN-positive neurons were visualized and counted by a Leica DM2500 microscope equipped with a Retiga-2000R CCD camera (QImaging) and a 3-axis computer-controlled MAC 600 motorized stage (Ludl Electronics) with the aid of StereoInvestigator software (MBF Bioscience). Each analysis included the processing of 15 brain sections per mouse.

[4] = test system: mice treated with intermittent cold stress; assay: Intermittent cold stress model of fibromyalgia; format: in vivo
Procedure: FIGS. 10A-C show the analgesic effect of JMF3464 on a mouse model of fibromyalgia. […] Open arrows indicate the time mice received acid injection. Black arrows indicate the time mice received T1-11 (p.o.). […] The analgesic effect of JMF3464 is dose-dependent. The effective dose started from 100 μg/kg (i.p.).
Intermittent cold stress model. The fibromyalgia model was developed by Ueda's group, in which mice were treated with intermittent cold stress for 2 days (Nishiyori and Ueda, 2008 Mol Pain. 4:52). Mice treated with intermittent cold stress developed long-lasting (>2 weeks) mechanical and thermal hyperalgesia. Analgesic effects of JMF3464 (i.p. or p.o.) were tested in these mice 5 days after intermittent cold stress. Mechanical hyperalgesia was assayed by testing the withdrawal response of mouse hindpaws to 0.2-mN von Frey filament stimulation.

R6/2 mice = assay: Transgenic mouse model (R6/2) of Huntington's disease: rotarod and lifespan; format: in vivo
Procedure: FIGS. 3A-B show the effect of JMF3464 on motor deficits and lifespan. […] Rotarod performance (A) and lifespan (B) of these mice were assessed. * p<0.05. *** p<0.005.
As the A2AR and ENT1 are located in the striatum and have been implicated in striatal function, we hypothesized that chronic treatment with JMF3464 would modulate the progression of HD. We tested the effect of JMF3464 in a transgenic mouse model (R6/2) of HD in which A2AR agonists have beneficial effects.
Animals and drug administration. Male R6/2 mice (Mangiarini et al., 1996 Cell. 87:493-506) and littermate controls were originally obtained from Jackson Laboratories (Bar Harbor, Me., USA), and mated to female control mice (B6CBAFI/J). Offspring were identified by a polymerase chain reaction (PCR) genotyping technique of genomic DNA extracted from tail tissues using primers located in the transgene (5′-[…]-3′; SEQ ID NO: 1, and 5′-GGCTGAGGAAGCTGAGGAG-3′; SEQ ID NO: 2) to ensure that the number of CAG repeats remained approximately 150. […] Body weights of mice were recorded once daily. […]
Rotarod performance. Motor coordination was assessed using a rotarod apparatus (UGO BASILE, Comerio, Italy) at a constant speed (12 rpm) over a period of 2 min (Carter et al., 1999 J Neurosci. 19:3248-3257). […] Latency to fall was recorded automatically. […]

human A2AR, sequence (P29274 whole entry): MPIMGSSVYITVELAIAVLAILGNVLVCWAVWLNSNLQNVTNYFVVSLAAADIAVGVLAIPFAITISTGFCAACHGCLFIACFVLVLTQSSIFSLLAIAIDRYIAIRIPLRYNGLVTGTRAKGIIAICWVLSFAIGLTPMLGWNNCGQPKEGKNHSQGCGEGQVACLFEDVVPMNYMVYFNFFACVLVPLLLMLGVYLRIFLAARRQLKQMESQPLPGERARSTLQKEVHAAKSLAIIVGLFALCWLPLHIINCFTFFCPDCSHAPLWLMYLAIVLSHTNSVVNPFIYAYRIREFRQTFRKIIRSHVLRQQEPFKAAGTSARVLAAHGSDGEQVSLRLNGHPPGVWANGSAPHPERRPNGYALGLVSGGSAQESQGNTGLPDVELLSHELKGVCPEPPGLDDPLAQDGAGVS

inhibition at 10 µM (human A2AR; read-out: inhibition of A2A receptor)	inhibition at 10 µM ([1]; read-out: inhibition of adenosine transporter (ENT1))	Compound	apoptosis of PC12 cells caused by serum withdrawal (PC12 cells)	oral absorption relative to T1-11 ([2]; JMF3464 vs T1-11)	bioavailability ([2]; male, mouse, plasma, oral 10 mg/kg vs intravenous 1 mg/kg)	TDP-43 mislocalization (NSC34 cells)	rotarod performance / ataxia ([3]; daily 0.3 mg per day)	pontine neuronal death (NeuN staining) ([3]; daily oral 0.3 mg per day)	effective dose (start) ([4]; i.p.)	analgesic effect ([4]; i.p., dose-dependent, von Frey mechanical hyperalgesia)	analgesic effect, oral administration ([4]; p.o. 1 mg/kg)	motor coordination assessed by rotarod performance (R6/2 mice; R6/2 mice from 7 weeks old, 0.11 mg/kg/day, subcutaneous osmotic minipump, 6 weeks)	lifespan (R6/2 mice; R6/2 mice, sustained (long term) treatment)	Ki (human A2AR)	Ki [1]
54%	96%	OC[C@H]1O[C@@H](n2cnc3c(NCc4ccc(Cl)s4)ncnc32)[C@H](O)[C@@H]1O [JMF3818, N^6-[(5-Chlorothien-2-yl)methyl]adenosine]	inhibited the apoptosis of PC12 cells caused by serum withdrawal												
		OC[C@H]1O[C@@H](n2cnc3c(NCc4ccc(Br)s4)ncnc32)[C@H](O)[C@@H]1O [JMF3464, N^6-[(5-bromothien-2-yl)methyl]adenosine]		more than 6 fold	17.4%	reduced TDP-43 mislocalization; also recorded: normalized TDP-43 mislocalization	greatly improved the rotarod performance; also recorded: alleviated the ataxia	significantly ameliorated neuronal death in the pontine nuclei; also recorded: alleviated	≥ 0.1 mg/kg	showed an analgesic effect	showed an analgesic effect	counteracted the progressive deterioration in motor coordination	improved	1700 nM	50 nM
